Measured values as given in US11360080B2, “AhR-ROR-γt complex as a biomarker and therapeutic target for autoimmune disease and IL-17A-associated disease” (NATIONAL HEALTH RESEARCH INSTITUTES, priority 2018, dated 2022).
Where a name gives a salt, the structure may show the parent alone.

Experiments:
GLK dimers = target: T1, GLK dimers (Homo sapiens, UniProt Q8IVH8); experiment: Co-immunoprecipitation of Flag-tagged GLK and GFP-fusion GLK in HEK293T cells; type: cell-based; conditions: HEK293T co-IP
T1 construct: expressed in transfected cells; host or cells: HEK293T
From the text: (A) The molecular docking of GLK kinase domain structure with C1 (verteporfin). A three-dimensional structure model depicts the binding of C1 to the predicted GLK kinase domain containing phosphorylated Ser-170. The putative binding affinity was −7.4 kcal/mol. (B) The molecular docking of GLK kinase domain structure with C2 (alexidine dihydrochloride). A three-dimensional structure model depicts the binding of C2 to the predicted GLK kinase domain containing phosphorylated Ser-170. The putative binding affinity was −7.0 kcal/mol. (C) Co-immunoprecipitation (co-IP) of Flag-tagged GLK and GFP-fusion GLK using lysates of HEK293T cells co-transfected with Flag-GLK and GFP-GLK plasmids. Cells were treated with C1 (verteporfin) or C2 (alexidine dihydrochloride). (D) Administration of the GLK inhibitor C1 (0.556 nmole/g) or C2 (0.085 nmole/g) every 3 days for 30 days in the LLC/luc metastatic lung cancer mouse model. (E) The luciferase activity in mice treated with C1 (verteporfin), C2 (alexidine dihydrochloride), or vehicle was detected by IVIS Spectrum. (F) Luminescent intensity of photons emitted from LLC/luc cells in the images in (e) was quantified. (G) Representative immunohistochemistry of H&E in lung tissues from mice treated with C1 (verteporfin), C2, or vehicle. Scale bar, 0.5 cm. […]

GLK kinase domain = target: T2, GLK kinase domain (Homo sapiens, UniProt Q8IVH8); experiment: In vitro GLK kinase assay (ADP-GLO) with kinase-dead PKCθ (K409W) as substrate; type: biochemical; conditions: screening of 101,200 compounds
T2 construct: recombinant proteins of the GLK kinase-domain (1 μg) were incubated with recombinant proteins of kinase-dead PKCθ
T2 sequence (Q8IVH8 16-273 limits assumed): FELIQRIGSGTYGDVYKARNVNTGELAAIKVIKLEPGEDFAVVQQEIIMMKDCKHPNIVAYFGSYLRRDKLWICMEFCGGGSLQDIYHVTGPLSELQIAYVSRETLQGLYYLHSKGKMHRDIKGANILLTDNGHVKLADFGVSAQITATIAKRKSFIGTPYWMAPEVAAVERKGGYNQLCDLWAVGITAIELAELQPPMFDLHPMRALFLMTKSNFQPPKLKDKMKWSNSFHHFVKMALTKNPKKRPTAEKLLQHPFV
Experimental: (A) Luciferase activity of NF-κB-driven reporter assays in stable GLK-transfected CHO-K1 cells that were treated with or without the GLK inhibitor C1 (verteporfin) under the indicated concentration. The fold changes are presented relative to the value of vector control. (B) Recombinant proteins of GLK kinase domain plus recombinant proteins of GST-tagged kinase-dead PKCθ (K409W) were subjected to in vitro kinase assays in the presence or absence of the GLK inhibitor C1 (verteporfin). Means±SD of are shown. *, P value<0.05; **, P value<0.01 (two-tailed Student's t-test). (C) The AhR-RORγt complex was inhibited by the GLK inhibitor. Confocal microscopy of proximity ligation assays (PLA) for the interaction between AhR and either RORγt or phospho-RORγt (S489) in peripheral blood T cells treated with C1 (verteporfin) (5 μM) for 30 min. The T cells were freshly isolated from 4 SLE patients and 1 RA patients. C1 denotes verteporfin; C2 denotes alexidine dihydrochloride. (D) Quantification of the PLA signals of (C). (E) FRET assays of HEK293T cells co-transfected with CFP-AhR, YFP-RORγt, and IKKβ plasmids.
GLK kinase activity was determined by measuring the rate of ADP production in the in vitro kinase reaction using ADP-GLO™ Kinase Assay kit. For the kinase reaction, recombinant proteins of the GLK kinase-domain (1 μg) were incubated with recombinant proteins of kinase-dead PKCθ (K409W; 0.15 μg) plus ATP (0.1 mM) or myelin basic protein (MBP) plus ATP (0.1 mM) in kinase buffer (40 mM Tris-HCl, pH7.5.20 mM MgCl2, 0.1 mg/ml BSA, 10 mM DTT and 0.1 mM Na3VO4) for 30 min at room temperature.
Cell-based high-throughput screening was conducted against a representative library of 100,000 molecules at ˜10 μM. CHO-GLK-Luc cells expressing GLK and NF-κB-luciferase reporter were used. The reaction volume was 5 μl (500 cells) per well in 1,536-well plates. There was no positive control. This high-throughput screening campaign was successful with a determined Z′ factor of 0.57˜0.60. […]

T1 sequence (Q8IVH8 whole entry, the tested form may be a part): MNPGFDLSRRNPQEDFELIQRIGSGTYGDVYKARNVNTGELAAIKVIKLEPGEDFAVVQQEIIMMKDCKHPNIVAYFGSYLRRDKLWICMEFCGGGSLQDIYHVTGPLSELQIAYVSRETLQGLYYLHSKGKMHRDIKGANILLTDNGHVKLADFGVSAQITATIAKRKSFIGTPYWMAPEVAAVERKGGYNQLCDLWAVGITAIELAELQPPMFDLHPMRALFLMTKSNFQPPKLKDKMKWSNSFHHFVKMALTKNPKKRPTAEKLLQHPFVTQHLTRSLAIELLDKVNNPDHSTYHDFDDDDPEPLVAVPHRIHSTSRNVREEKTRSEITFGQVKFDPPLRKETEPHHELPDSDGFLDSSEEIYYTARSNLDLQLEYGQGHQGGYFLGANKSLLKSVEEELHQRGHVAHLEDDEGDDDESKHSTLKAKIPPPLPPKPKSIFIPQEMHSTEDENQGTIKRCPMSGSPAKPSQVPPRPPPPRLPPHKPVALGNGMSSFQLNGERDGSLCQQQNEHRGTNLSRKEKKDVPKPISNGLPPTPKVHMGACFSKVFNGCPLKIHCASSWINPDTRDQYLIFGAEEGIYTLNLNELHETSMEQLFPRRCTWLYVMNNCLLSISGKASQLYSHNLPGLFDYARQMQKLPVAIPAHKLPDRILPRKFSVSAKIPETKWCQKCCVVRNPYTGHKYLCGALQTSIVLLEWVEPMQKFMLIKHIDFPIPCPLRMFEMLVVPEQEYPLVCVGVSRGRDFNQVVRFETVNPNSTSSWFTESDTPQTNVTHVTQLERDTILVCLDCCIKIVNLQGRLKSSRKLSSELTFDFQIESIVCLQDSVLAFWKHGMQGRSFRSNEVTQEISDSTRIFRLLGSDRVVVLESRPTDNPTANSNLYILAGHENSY

dimerization of Flag-tagged GLK protein and GFP-GLK fusion protein (GLK dimers) | GLK kinase activity in vitro (GLK kinase domain) | GLK kinase activity in vitro (GLK kinase domain; listed as verteporfin) | Structure (SMILES)
blocked | efficiently inhibited | most effective inhibitor | C=Cc1c(C)c2cc3nc(cc4[nH]c(cc5nc(cc1[nH]2)C(C)=C5CCC(=O)O)c(CCC(=O)OC)c4C)[C@@]1(C)C3=CC=C(C(=O)OC)[C@H]1C(=O)OC [C1, verteporfin]
– | efficiently inhibited | – | CCCCC(CC)CNC(=N)NC(=N)NCCCCCCNC(=N)NC(=N)NCC(CC)CCCC (stereo not shown) [C2, alexidine dihydrochloride]
